Usually IC50 stands for the concentration that inhibits the measured activity by half. The half-life is the time in which the quantity being followed falls by half. Usually solubility (thermodynamic) stands for the concentration in solution at equilibrium with solid. One may read the clearance as the volume of plasma or blood freed of the substance per unit of time. In general, Tmax refers to the time from dosing to the highest level. For orientation: bioavailability means the share of a dose that reaches the circulation, judged against a reference dose that is usually intravenous. Read a high bioavailability as good availability. The AUC is the area under the concentration-time curve, a measure of exposure. High values mean high exposure, low ones low exposure. A word on the Cmax: it is the maximum level reached in the sampled fluid or tissue.

14 compounds from ChEMBL document CHEMBL3352748, “Lead optimization of imidazopyrazines: a new class of antimalarial with activity on Plasmodium liver stages” (ACS Med Chem Lett, 2014) can be followed below.

≈ marks a conversion by molar mass, not a printed value.

One series has as its system Plasmodium falciparum. The series is described as follows: Antiplasmodial activity against schizont blood stage Plasmodium falciparum. The class given is functional, organism-based.
Series [1] relates to Plasmodium cynomolgi. The series is described as follows: Antiplasmodial activity against hypnozoite liver stage Plasmodium cynomolgi. The class given is functional, organism-based.
Another series concerns Plasmodium yoelii. As to the kind of experiment: Antiplasmodial activity against blood stage schizont Plasmodium yoelii. In kind it is functional, organism-based.
The nature of series [2]: Half life in mouse liver microsomes by LC/MS analysis. The class given is ADME. A general note: Microsomes from liver hold many membrane-bound enzymes, among them those of drug oxidation.
The nature of series [3]: Solubility of the compound at pH 6.8 by HT-equilibrium solubility assay. The class given is physicochemical. As to conditions: buffer.
Series [4] has as its system Plasmodium cynomolgi. The series is described as follows: Antiplasmodial activity against schizont liver stage Plasmodium cynomolgi. In kind it is functional, organism-based.
Series [5] can be described thus: Hepatic extraction ratio in mouse liver microsomes by LC/MS analysis. As to conditions: read-out: ERH. The class given is ADME.
Series [6] can be described thus: Clearance in mouse at 5 mg/kg, iv. The class given is ADME, organism-based. The arrangement: dose 5 mg/kg, route intravenous. As to conditions: in vivo.
A short description of series [7]: Tmax in mouse at 20 mg/kg, po. As to conditions: in vivo. The class given is ADME, organism-based. The arrangement: dose 20 mg/kg, route oral.
A short description of series [8]: Half life in mouse at 20 mg/kg, po. The class given is ADME, organism-based. Also on record: dose 20 mg/kg, route oral. As to conditions: in vivo.
Series [9] is described as follows: Oral bioavailability in mouse at 20 mg/kg. The class given is ADME, organism-based. As to conditions: in vivo.
The nature of series [10]: Volume of distribution at steady state in mouse at 5 mg/kg, iv. In kind it is ADME, organism-based. The arrangement: dose 5 mg/kg, route intravenous. As to conditions: in vivo, read-out: Vdss.
Series [11] can be described thus: AUC in mouse at 20 mg/kg, po. In kind it is ADME, organism-based. The arrangement: dose 20 mg/kg, route oral. As to conditions: plasma.
A short description of series [12]: Cmax in mouse at 20 mg/kg, po. The class given is ADME, organism-based. Also on record: dose 20 mg/kg, route oral. As to conditions: in vivo.
Series [13] is described as follows: Half life in mouse at 5 mg/kg, iv. The class given is ADME, organism-based. The arrangement: dose 5 mg/kg, route intravenous. As to conditions: in vivo.
The next series concerns Plasmodium berghei. As to the kind of experiment: Antimalarial activity against Plasmodium berghei infected in mouse assessed as animal protection at 30 mg/kg, po by causal prophylactic activity assay relative to untreated control. The class given is functional.

As to `CN(C(=O)c1ccc2ncc(-c3ccc(C#N)cc3)n2c1)c1ccccc1`, the half-maximal inhibitory concentration (IC50) is 600 nM with Plasmodium falciparum, more than 10000 nM with Plasmodium cynomolgi [1] and more than 10000 nM in the series with Plasmodium yoelii.
As for `CN(C(=O)c1ccc2ncc(-c3ccc(C(F)(F)F)cc3)n2c1)c1ccc(C#N)cc1`, the concentration for half-maximal inhibition (IC50) in the series with Plasmodium falciparum was 11 nM; with Plasmodium cynomolgi [1] it was more than 10000 nM; in the series with Plasmodium yoelii, 5400 nM.
Consider `CN(C(=O)c1cn2c(-c3ccc(C(F)(F)F)cc3)cnc2cn1)c1ccc(C#N)cc1`, for which the half-life in series [2] stood at 1.37 h. This compound also returned a solubility (thermodynamic) in series [3] of 9 µM (≈ 3.79 µg/mL). For the same compound, the half-inhibitory concentration (IC50) with Plasmodium falciparum was 63 nM; in the series on Plasmodium cynomolgi [1], 810 nM; with Plasmodium yoelii, 160 nM; with Plasmodium cynomolgi [4], 120 nM. The hepatic extraction ratio in [5] came out at 0.4.
As to `CN(C(=O)c1cn2c(-c3ccc(C(F)(F)F)cc3)cnc2cn1)c1ccc(Cl)nc1`, the figures for the half-inhibitory concentration (IC50) in the series with Plasmodium falciparum and with Plasmodium yoelii were 275 nM and 200 nM, respectively.
On to `CN(C(=O)c1cn2c(-c3ccc(C(F)(F)F)cc3)cnc2cn1)c1ccc(C#N)nc1`, for which the IC50 in the series on Plasmodium falciparum is 1630 nM; with Plasmodium yoelii it was 3630 nM.
For `Cc1ccc(N(C)C(=O)c2cn3c(-c4ccc(C(F)(F)F)cc4)cnc3cn2)nn1`, in that order: more than 10000 nM and more than 10000 nM.
In the case of `CN(C(=O)c1cn2c(-c3ccc(C(F)(F)F)cc3)cnc2cn1)c1nc2ccccc2s1`, the IC50 with Plasmodium falciparum is 9580 nM; with Plasmodium yoelii it was more than 10000 nM.
The matching figures for `CN(Cc1ccc(F)cc1)C(=O)c1cn2c(-c3ccc(C(F)(F)F)cc3)cnc2cn1`: more than 10000 nM and more than 10000 nM.
For `CN1CCC(N(C)C(=O)c2cn3c(-c4ccc(C(F)(F)F)cc4)cnc3cn2)CC1`, in that order: more than 10000 nM and more than 10000 nM.
As to `CN(C(=O)c1cn2c(-c3ccc(-c4ccn[nH]4)cc3)cnc2cn1)c1ccc(C#N)cc1`, the IC50 was found to be 32 nM in the series with Plasmodium falciparum, 300 nM in the series on Plasmodium cynomolgi [1], 46 nM with Plasmodium yoelii and 300 nM in the series with Plasmodium cynomolgi [4].
As to `CN(C(=O)c1cn2c(-c3ccc(-c4nnc(N)s4)cc3)cnc2cn1)c1ccc(C#N)cc1`, the clearance in series [6] came to 16.2 mL/min/kg. This compound had a thermodynamic solubility in series [3] of less than 5 µM. For the same compound, in series [7], the Tmax came out at 1.7 h. In addition, the values for the half-life in series [8] and in series [13] were 3.39 h and 2.12 h, respectively. For the same compound, the half-inhibitory concentration (IC50) in the series on Plasmodium falciparum is 22 nM; in the series on Plasmodium cynomolgi [1], 60 nM; in the series with Plasmodium yoelii it was 19 nM; in the series with Plasmodium cynomolgi [4], 40 nM. Also, the bioavailability in series [9] turned out to be 0.24%. The Vd in series [10] amounted to 0.99 L/kg. Further, the area under the curve (AUC) in [11] turned out to be 0.12 µM·h. This compound also registered a peak concentration (Cmax) in [12] of 0.02 µM.
Take `CN(C(=O)c1cn2c(-c3ccc(C(N)=O)cc3)cnc2cn1)c1ccc(F)cc1`: the half-life in [2] is 0.95 h; in series [8] it was 1.35 h; in series [13] it was 0.62 h. This compound also yielded a clearance in [6] of 39.7 mL/min/kg. The compound further registered a solubility (thermodynamic) in series [3] of 170 µM (≈ 66.2 µg/mL). Moreover, in series [7], the time of peak concentration (Tmax) amounted to 0.5 h. Moreover, the half-inhibitory concentration (IC50) was found to be 56 nM in the series on Plasmodium falciparum, 260 nM in the series on Plasmodium cynomolgi [1], 62 nM with Plasmodium yoelii and 190 nM in the series on Plasmodium cynomolgi [4]. This compound came in with a bioavailability in series [9] of 51.6%. Also, the Vd in series [10] was found to be 0.9 L/kg. Further, in the series with Plasmodium berghei, the Activity is given as 80%. Further, the AUC in [11] is 11.1 µM·h. Moreover, the Cmax in series [12] is 8.3 µM. In addition, the hepatic extraction ratio in series [5] came out at 0.52.
As for `CNC(=O)c1ccc(-c2cnc3cnc(C(=O)N(C)c4ccc(C#N)cc4)cn23)cc1`, the half-life in [2] is 2.08 h; in [8], 1.63 h; in [13] it was 0.42 h. This compound also showed a clearance in series [6] of 34 mL/min/kg. The same compound showed a thermodynamic solubility in [3] of 430 µM (≈ 176 µg/mL). The Tmax in series [7] stood at 0.5 h. Moreover, the 50% inhibitory concentration (IC50) in the series with Plasmodium falciparum came to 131 nM; with Plasmodium cynomolgi [1], 94 nM; in the series on Plasmodium yoelii, 290 nM; with Plasmodium cynomolgi [4], 81 nM. In series [9], the bioavailability is 51.9%. Also, the Vd in [10] is 1.02 L/kg. In the series on Plasmodium berghei, the Activity came to 80%. Further, in [11], the AUC came out at 12.4 µM·h. The same compound came in with a Cmax in series [12] of 5.2 µM. Also, the hepatic extraction ratio in series [5] was determined as 0.33.
For the compound `CNC(=O)c1ccc(-c2cnc3cnc(C(=O)N(C)c4ccc(Cl)cc4)cn23)cc1`, the half-life is 1.05 h in [2], 3.63 h in series [8] and 0.83 h in [13]. In series [6], this compound came in with a clearance of 19.3 mL/min/kg. The compound also showed a solubility (thermodynamic) in series [3] of 820 µM (≈ 344 µg/mL). The Tmax in [7] was found to be 0.5 h. Besides, the 50% inhibitory concentration (IC50) in the series with Plasmodium falciparum is 58 nM; with Plasmodium cynomolgi [1] it was 196 nM; with Plasmodium yoelii it was 36 nM; in the series with Plasmodium cynomolgi [4], 105 nM. In series [9], this compound registered a bioavailability of 60%. In [10], the Vd is 0.96 L/kg. The same compound returned an exposure (AUC) in series [11] of 31.2 µM·h. In addition, the Cmax in [12] came to 20.5 µM. Also, the hepatic extraction ratio in [5] is 0.49.
